According to patent publication US11925637B2, “Phenylpiperazine proprotein convertase subtilisin/kexin type 9 (PCSK9) modulators and their use” (SRX Cardio, LLC, priority 2015, dated 2024):

Experiments:
recombinant PCSK9 [1] = target: T1, recombinant PCSK9 (Homo sapiens, UniProt Q8NBP7); test: LDLR Flow (FACS) Assay (% inhibition of recombinant PCSK9); assay type: cell-based; settings: 5.0 ug/mL recombinant PCSK9, HuH7 cells (FIG. 2), read-out: LDLR Flow Assay: % Inhibition of 5.0 ug/mL recombinant PCSK9 @ X compound dose; for inhibition at 1.25 µM: Huh-7, compound dose 1.25 uM; for inhibition at 10 µM: Huh-7, compound dose 10 uM; for inhibition at 20 µM: Huh-7, compound dose 20 uM; for inhibition at 0.313 µM: Huh-7, compound dose 0.313 uM
T1 sequence (Q8NBP7 153-692): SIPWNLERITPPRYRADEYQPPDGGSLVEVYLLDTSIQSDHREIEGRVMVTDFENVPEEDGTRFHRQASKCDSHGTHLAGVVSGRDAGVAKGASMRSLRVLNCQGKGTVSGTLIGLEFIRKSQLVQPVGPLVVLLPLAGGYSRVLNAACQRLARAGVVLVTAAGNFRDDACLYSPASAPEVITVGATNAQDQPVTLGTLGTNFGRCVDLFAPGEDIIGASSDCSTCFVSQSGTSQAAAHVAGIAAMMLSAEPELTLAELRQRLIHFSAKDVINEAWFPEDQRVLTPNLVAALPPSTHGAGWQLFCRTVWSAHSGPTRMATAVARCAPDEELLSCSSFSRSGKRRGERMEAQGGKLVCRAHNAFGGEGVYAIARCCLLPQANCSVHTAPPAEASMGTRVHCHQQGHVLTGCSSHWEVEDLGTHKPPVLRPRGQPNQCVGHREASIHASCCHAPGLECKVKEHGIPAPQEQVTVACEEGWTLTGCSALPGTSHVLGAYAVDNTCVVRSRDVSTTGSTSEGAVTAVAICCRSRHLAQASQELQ
Method: The cells were incubated in 24-well plates for a total of 6 h in the absence or presence of recombinant PCSK9 protein (final concentration of 5.0 ug/ml), or in the presence of PCSK9 protein mixed with indicated concentration of experimental compound (Cmpd #). After 6 hours, the cells were released from the plate, stained with anti-LDLR antibody, then rinsed, counterstained with DAPI, and then measured by fluorescence activated cell sorting (FACS). The percent recombinant PCSK9 inhibition was calculated as [‘Compound Dose LDLR Fluorescence’−‘5.0 ug/ml PCSK9-treated LDLR Fluorescence’]/[‘No PCSK9 Basal LDLR Fluorescence’−‘5.0 ug/ml PCSK9-treated LDLR Fluorescence’]×100%.
LDLR levels can be measured using flow cytometry or fluorescence activated cell sorting (FACS) using protocols adapted from Benjannet et al., “Effects of the prosegment and pH on the activity of PCSK9: evidence for additional processing events” J Biol Chem. 285(52): 40965-40978 (2010) and “Composition and Methods of Use of Small Molecules as Binding Ligands for the Modulation of Proprotein Convertase Subtilisin/Kexin Type 9 (PCSK9) Protein Activity” (WO2016029037), which are incorporated by reference in their entirety.
Cells, such as HepG2, HuH7, FL83B, or a cell line transfected with a short-hairpin PCSK9 knockdown sequence such as HepG2/shPCSK9, HuH7/shPCSK9, or FL83B/shPCSK9 are plated and cultured at 37° C. for 12-24 h. Culture media is removed and replaced with fresh culture media or culture media plus a predetermined amount of recombinant PCSK9, for example a 10 nM final concentration of PCSK9. Cell culture media can be composed of DMEM (Invitrogen) with 10% fetal bovine serum (Life Technologies) supplemented with penicillin-streptomycin (Life Technologies). Cells are dosed with small molecule test compounds at doses ranging from 0 nM to 100 uM
Following an incubation period of specified length, such as 6 hours, the media is removed and the cells are rinsed three times with a rinse solution (i.e., Dulbecco's phosphate buffered saline (D-PBS, Life Technologies) supplemented with 0.5% bovine serum albumin (BSA, Sigma) and 1 g/L glucose (Sigma)). The fluid is then removed, and cells are released from the plate using TrypLE Express (Life Technologies) per manufacturer's recommend procedures, such as incubation for 5-10 minutes at 37° C. The TyrpLE-Cell suspension is then transferred to 15 mL conical tubes, volume is increased to 2 mL with D-PBS supplemented with 0.5% BSA and […] glucose, and the tubes are centrifuged at 250× gravity for 10 minutes. Following centrifugation, the supernatant is aspirated and the cell pellet is resuspended in 100 uL D-PBS containing 0.5% BSA and […] glucose, and cells are labeled with anti-LDLR antibody per the manufacturer's recommended procedure. The cells are then pelleted by centrifugation, resuspended in 300 uL PBS and counterstained with 4′,6-Diamidino-2-phenylindole (DAPI, Cayman Chemical) as a cell viability marker, other cell viability markers such as 7-aminoactinomycin D (7AAD, Life Technologies) have also been described in the art.
Cells are analyzed for both cell viability marker (dead cells) and LDLR in live cells using a flow cytometer per the manufacturer's operating manual. Cells incubated with small molecule compounds that are inhibitors of PCSK9 will be expected to show increased amounts of LDLR, relative to control (no compound) specimens, and cells incubated with small molecule compounds that are activators of PCSK9 will be expected to show decreased amounts of LDLR relative to control (no compound) specimens.

recombinant PCSK9 [2] = target: T1, recombinant PCSK9; test: DiI-LDL Uptake Assay (% inhibition of recombinant PCSK9); assay type: cell-based; settings: 2.5 ug/mL recombinant PCSK9, HepG2 cells (FIG. 1), read-out: Uptake Assay: % Inhibition of 2.5 ug/mL recombinant PCSK9 @ X compound dose; for inhibition at 20 µM: compound dose 20 uM; for inhibition at 5 µM: compound dose 5 uM; for inhibition at 10 µM: compound dose 10 uM; for inhibition at 1.25 µM: compound dose 1.25 uM; for inhibition at 2.5 µM: compound dose 2.5 uM
Method: The cells were incubated in a 96-well plate for a total of 16 h in the absence or presence of recombinant PCSK9 (final concentration 2.5 ug/ml) protein alone or recombinant PCSK9 protein pre-mixed with indicated concentration of experimental compounds (Cmpd #). After 16 h, DiI-LDL (final concentration 5 ug/ml) was added to the incubation mixtures. After 4 h, cells are stained with Hoechst 33342 for 30 minutes, then rinsed with phosphate buffered saline, and then a final volume of 100 ul phosphate buffered saline was added to each well. The fluorescence was measured (DiI: excitation at 550 nm and emission at 590 nm; Hoechst: excitation at 355 nm, emission at 460 nm). The percent recombinant PCSK9 inhibition was calculated as [‘Compound Dose DiI Fluorescence’−‘2.5 ug/ml PCSK9-treated DiI Fluorescence’]/[‘No PCSK9 DiI Fluorescence’−‘2.5 ug/ml PCSK9-treated DiI Fluorescence’]×100%.
Cellular DiI-LDL uptake can be measured using protocols adapted from Benjannet et al., “Effects of the prosegment and pH on the activity of PCSK9: evidence for additional processing events” J Biol Chem. 285(52): 40965-40978 (2010) and “Composition and Methods of Use of Small Molecules as Binding Ligands for the Modulation of Proprotein Convertase Subtilisin/Kexin Type 9 (PCSK9) Protein Activity” (WO2016029037), which are incorporated by reference in their entirety.
Cells, such as HepG2, HuH7, FL83B, or a cell line transfected with a short-hairpin PCSK9 knockdown sequence such as HepG2/shPCSK9, HuH7/shPCSK9, or FL83B/shPCSK9 are plated and cultured at 37° C. for 12-24 h. Culture media is removed and replaced with fresh lipoprotein-depleted culture media supplemented with 5 ug/mL of DiI-LDL (Kalen Biomedical) or lipoprotein-depleted culture media supplemented with 5 ug/mL of DiI-LDL plus a predetermined concentration of recombinant PCSK9, for example a 10 nM final concentration of PCSK9. Lipoprotein-depleted culture media can be composed of DMEM (Invitrogen) with 10% lipoprotein-depleted fetal bovine serum (Kalen Biomedical) and supplemented with penicillin-streptomycin (Life Technologies). Cells are dosed with small molecule test compounds at doses ranging from 0 nM to 100 uM.
Following an incubation period of specified length, such as 6 hours, Hoechst 33342 (AnaSpec) stain is added to the cell media per manufacturer's instructions and incubated for a specified length (e.g., 30 minutes). The lipoprotein-depleted media is removed and cells rinsed three times with phosphate buffered saline. A final volume of phosphate buffered saline is added back to the wells. The DiI fluorescence is measured with a plate reader using an exciting wavelength of 550 nm and the resulting emission at 590 nm is measured. The Hoechst stain fluorescence is measured with a plate reader using an exciting wavelength of 355 nm and the resulting emission at 460 nm is measured.
Cells are analyzed by for both Hoechst stain (DNA content) and DiI-LDL fluorescence. Cells incubated with small molecule compounds that are inhibitors of PCSK9 will be expected to show increased amounts of DiI-LDL fluorescence, relative to control (no compound) specimens, and cells incubated with small molecule compounds that are activators of PCSK9 will be expected to show decreased amounts of DiI-LDL fluorescence relative to control (no compound) specimens.

Row | Structure (SMILES) | inhibition at 1.25 µM (recombinant PCSK9 [1]) [%] | inhibition at 10 µM (recombinant PCSK9 [1]) [%] | inhibition at 20 µM (recombinant PCSK9 [2]) [%] | other results
1 | O=S(=O)(c1ccc(N2CCNCC2)cc1)N1CCCC1 [Compound 5, 1-(4-(pyrrolidin-1-ylsulfonyl)phenyl)piperazine] | ~10 | ~20 | – | –
2 | O=S(=O)(c1ccccc1)c1ccc(N2CCNCC2)c(F)c1 [Compound 2, 1-(2-fluoro-4-(phenylsulfonyl)phenyl)piperazine] | ~45 | – | > 100 | inhibition at 5 µM (recombinant PCSK9 [1]; Huh-7, compound dose 5 uM): ~66%
3 | Fc1ccc(Cc2ccc(N3CCNCC3)cc2)cc1 [Compound 6, 1-(4-(4-fluorobenzyl)phenyl)piperazine] | ~15 | ~40 | – | inhibition at 5 µM (recombinant PCSK9 [2]): > 100%
4 | O=S(=O)(Nc1ccccc1)c1ccc(N2CCNCC2)cc1 [Compound 10, N-phenyl-4-(piperazin-1-yl)benzenesulfonamide] | > 10 | > 25 | > 100 | inhibition at 20 µM (recombinant PCSK9 [1]): > 40%
5 | c1ccc(Oc2ccc(N3CCNCC3)cc2)cc1 [Compound 3] | ~20 | ~30 | – | inhibition at 10 µM (recombinant PCSK9 [2]): > 100%
6 | O=S(=O)(Nc1ccc2c(c1)CCCC2)c1ccc(N2CCNCC2)cc1 [Compound 12, 4-(piperazin-1-yl)-N-(5,6,7,8-tetrahydronaphthalen-2-yl)benzenesulfonamide] | ~10 | ~25 | – | inhibition at 1.25 µM (recombinant PCSK9 [2]): ~66%; inhibition at 2.5 µM (recombinant PCSK9 [2]): > 100%; inhibition at 20 µM (recombinant PCSK9 [1]): ~45%
7 | c1ccc(COc2ccc(N3CCNCC3)cc2)cc1 [Compound 1, 1-(4-(benzyloxy)phenyl)piperazine] | ~16 | ~34 | – | inhibition at 10 µM (recombinant PCSK9 [2]): > 100%
8 | c1cc(N2CCNCC2)ccc1OC1CCCCC1 [Compound 13, 1-(4-(cyclohexyloxy)phenyl)piperazine] | – | ~40 | > 100 | inhibition at 0.625 µM (recombinant PCSK9 [1]; Huh-7, compound dose 0.625 uM): ~20%
9 | O=C1CNCCN1c1ccc(Oc2ccccc2)cc1 [Compound 7, 1-(4-phenoxyphenyl)piperazin-2-one] | ~18 | – | – | –
10 | Oc1cc(Oc2ccc(N3CCNCC3)cc2)ncn1 [Compound 4, 6-(4-(piperazin-1-yl)phenoxy)pyrimidin-4-ol] | ~30 | – | – | inhibition at 0.313 µM (recombinant PCSK9 [1]): ~19%
11 | c1cc(C2CCNCC2)ccc1OC1CCOCC1 [Compound 9, 4-(4-((tetrahydro-2H-pyran-4-yl)oxy)phenyl)piperidine] | – | – | – | inhibition at 20 µM (recombinant PCSK9 [1]): ~23%
12 | O=S(=O)(Nc1ccccc1)c1ccc(C2CCNCC2)cc1 [Compound 14, N-phenyl-4-(piperidin-4-yl)benzenesulfonamide] | – | – | > 100 | –
13 | O=S(=O)(Nc1ccc2c(c1)CCCC2)c1ccc(C2CCNCC2)cc1 [Compound 15, 4-(piperidin-4-yl)-N-(5,6,7,8-tetrahydronaphthalen-2-yl)benzenesulfonamide] | – | – | – | inhibition at 1.25 µM (recombinant PCSK9 [2]): > 50%; inhibition at 2.5 µM (recombinant PCSK9 [2]): > 100%
14 | O=C(Nc1ccccc1)c1ccc(N2CCNCC2)cc1 [Compound 11, N-phenyl-4-(piperazin-1-yl)benzamide] | – | – | ~49 | –
15 | c1cc(C2CCNCC2)ccc1OC1CCCCC1 [Compound 8, 4-(4-(cyclohexyloxy)phenyl)piperidine] | ~25 | ~35 | – | inhibition at 5 µM (recombinant PCSK9 [2]): > 100%; inhibition at 0.313 µM (recombinant PCSK9 [1]): ~15%
